From ChEMBL document CHEMBL3351764, “Design, synthesis and biological activity of flavonoid derivatives as selective agonists for neuromedin U 2 receptor” (Bioorg Med Chem, 2014)
Active and inactive are the calls of the source. The calls are words filed in the database; no cut-off is given here.

Assays:
[1] = target: T1, Neuromedin-U receptor 1 (Homo sapiens) (UniProt Q9HB89); assay: Agonist activity at human NMU1 receptor at 100 uM to 5 mM
T1 sequence (whole entry): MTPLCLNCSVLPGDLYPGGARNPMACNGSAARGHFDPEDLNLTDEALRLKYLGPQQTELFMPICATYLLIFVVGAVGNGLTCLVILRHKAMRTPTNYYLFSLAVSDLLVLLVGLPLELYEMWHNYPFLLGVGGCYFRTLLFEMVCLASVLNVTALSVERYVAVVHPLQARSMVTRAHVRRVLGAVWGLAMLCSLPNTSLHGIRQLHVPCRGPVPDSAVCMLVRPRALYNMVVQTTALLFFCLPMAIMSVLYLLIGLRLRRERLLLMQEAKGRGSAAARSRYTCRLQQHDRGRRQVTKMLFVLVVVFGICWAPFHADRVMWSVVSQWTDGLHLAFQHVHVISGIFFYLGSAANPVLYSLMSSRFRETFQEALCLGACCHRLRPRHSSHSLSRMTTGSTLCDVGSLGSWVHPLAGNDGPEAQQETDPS

[2] = target: T2, 5-hydroxytryptamine receptor 2C (Homo sapiens) (UniProt P28335); assay: Agonist activity at human 5HT2C receptor at 100 uM to 5 mM
T2 sequence (whole entry): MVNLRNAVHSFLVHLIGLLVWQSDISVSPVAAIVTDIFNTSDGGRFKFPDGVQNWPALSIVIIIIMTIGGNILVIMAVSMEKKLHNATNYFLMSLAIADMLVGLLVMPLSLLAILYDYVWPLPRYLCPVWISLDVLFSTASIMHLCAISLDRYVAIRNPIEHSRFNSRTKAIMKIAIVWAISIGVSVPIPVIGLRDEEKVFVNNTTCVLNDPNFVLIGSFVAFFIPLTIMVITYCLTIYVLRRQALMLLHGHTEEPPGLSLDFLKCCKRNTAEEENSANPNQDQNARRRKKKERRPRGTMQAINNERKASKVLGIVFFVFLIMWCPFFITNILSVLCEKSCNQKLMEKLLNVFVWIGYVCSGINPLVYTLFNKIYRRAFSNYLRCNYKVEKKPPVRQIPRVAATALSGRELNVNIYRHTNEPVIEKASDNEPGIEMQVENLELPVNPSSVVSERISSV

[3] = target: T3, Neuropeptide Y receptor type 5 (Homo sapiens) (UniProt Q15761); assay: Agonist activity at human NPY5 receptor at 100 uM to 5 mM
T3 sequence (whole entry): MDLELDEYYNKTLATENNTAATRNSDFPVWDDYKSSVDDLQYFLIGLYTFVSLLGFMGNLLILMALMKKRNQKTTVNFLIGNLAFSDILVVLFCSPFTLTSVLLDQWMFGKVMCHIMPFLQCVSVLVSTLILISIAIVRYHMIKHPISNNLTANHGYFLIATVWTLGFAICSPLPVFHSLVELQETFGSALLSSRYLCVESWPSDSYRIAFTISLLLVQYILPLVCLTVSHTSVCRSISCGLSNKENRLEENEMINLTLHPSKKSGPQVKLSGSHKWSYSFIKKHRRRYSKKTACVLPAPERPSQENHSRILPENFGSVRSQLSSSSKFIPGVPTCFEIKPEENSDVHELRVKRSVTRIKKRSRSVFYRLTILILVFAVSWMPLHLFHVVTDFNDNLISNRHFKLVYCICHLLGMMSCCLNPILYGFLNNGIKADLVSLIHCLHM

[4] = target: T4, Adenosine receptor A3 (Homo sapiens) (UniProt P0DMS8); assay: Agonist activity at human A3 receptor at 100 uM to 5 mM
T4 sequence (whole entry): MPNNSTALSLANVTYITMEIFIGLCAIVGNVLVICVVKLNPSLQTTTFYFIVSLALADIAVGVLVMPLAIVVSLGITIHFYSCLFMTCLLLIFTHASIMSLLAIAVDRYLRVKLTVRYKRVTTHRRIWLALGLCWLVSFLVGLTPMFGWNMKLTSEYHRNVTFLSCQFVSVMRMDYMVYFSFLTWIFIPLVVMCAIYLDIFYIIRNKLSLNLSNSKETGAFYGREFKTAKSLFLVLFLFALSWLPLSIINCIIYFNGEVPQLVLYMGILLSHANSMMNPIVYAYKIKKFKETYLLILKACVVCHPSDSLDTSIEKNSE

[5] = target: T5, Adenosine receptor A1 (Homo sapiens) (UniProt P30542); assay: Agonist activity at human A1 receptor at 100 uM to 5 mM
T5 sequence (whole entry): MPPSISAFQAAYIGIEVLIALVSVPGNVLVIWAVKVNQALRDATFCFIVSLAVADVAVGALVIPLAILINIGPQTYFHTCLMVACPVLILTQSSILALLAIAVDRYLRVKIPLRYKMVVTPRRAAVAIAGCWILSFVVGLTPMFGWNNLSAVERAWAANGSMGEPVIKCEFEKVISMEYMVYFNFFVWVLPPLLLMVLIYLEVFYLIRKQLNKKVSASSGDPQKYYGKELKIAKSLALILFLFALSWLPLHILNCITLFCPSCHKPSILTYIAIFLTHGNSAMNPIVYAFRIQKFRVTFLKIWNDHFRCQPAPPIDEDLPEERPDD

[6] = target: Melanocortin receptor 5 (Mus musculus) (UniProt P41149); assay: Agonist activity at mouse MC5 receptor at 100 uM to 5 mM
[7] = target: T6, Parathyroid hormone/parathyroid hormone-related peptide receptor (Homo sapiens) (UniProt Q03431); assay: Agonist activity at human PTH receptor at 100 uM to 5 mM
T6 sequence (whole entry): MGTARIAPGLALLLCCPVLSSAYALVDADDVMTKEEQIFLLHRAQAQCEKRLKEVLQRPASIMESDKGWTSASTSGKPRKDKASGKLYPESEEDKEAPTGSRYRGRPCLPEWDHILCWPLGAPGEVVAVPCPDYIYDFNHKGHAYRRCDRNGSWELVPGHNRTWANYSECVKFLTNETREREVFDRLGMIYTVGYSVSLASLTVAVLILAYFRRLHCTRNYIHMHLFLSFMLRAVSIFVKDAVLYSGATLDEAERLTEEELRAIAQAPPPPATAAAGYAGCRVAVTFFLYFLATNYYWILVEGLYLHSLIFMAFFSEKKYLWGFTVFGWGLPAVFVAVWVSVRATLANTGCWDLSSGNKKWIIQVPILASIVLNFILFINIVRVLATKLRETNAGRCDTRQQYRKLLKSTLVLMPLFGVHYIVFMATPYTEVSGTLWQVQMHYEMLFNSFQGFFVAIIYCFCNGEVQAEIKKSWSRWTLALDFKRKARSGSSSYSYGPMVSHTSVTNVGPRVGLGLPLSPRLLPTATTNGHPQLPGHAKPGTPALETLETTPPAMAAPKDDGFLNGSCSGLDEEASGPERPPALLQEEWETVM

[8] = target: D(1B) dopamine receptor (Homo sapiens) (UniProt P21918); assay: Agonist activity at human D5 receptor at 100 uM to 5 mM
Chain of D(1B) dopamine receptor (Homo sapiens) (P21918 whole entry): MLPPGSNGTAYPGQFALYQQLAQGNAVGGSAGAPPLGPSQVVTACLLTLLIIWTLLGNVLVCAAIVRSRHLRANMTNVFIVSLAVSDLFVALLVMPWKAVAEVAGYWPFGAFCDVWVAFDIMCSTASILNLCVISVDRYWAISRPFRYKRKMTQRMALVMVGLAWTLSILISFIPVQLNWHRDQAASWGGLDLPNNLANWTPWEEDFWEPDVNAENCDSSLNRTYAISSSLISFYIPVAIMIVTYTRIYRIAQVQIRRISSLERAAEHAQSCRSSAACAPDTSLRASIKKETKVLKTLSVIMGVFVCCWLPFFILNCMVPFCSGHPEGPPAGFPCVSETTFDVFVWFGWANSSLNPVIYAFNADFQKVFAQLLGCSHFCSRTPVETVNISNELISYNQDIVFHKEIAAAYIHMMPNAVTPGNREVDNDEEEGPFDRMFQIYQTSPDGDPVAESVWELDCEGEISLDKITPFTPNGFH

Chain of Melanocortin receptor 5 (Mus musculus) (P41149 whole entry): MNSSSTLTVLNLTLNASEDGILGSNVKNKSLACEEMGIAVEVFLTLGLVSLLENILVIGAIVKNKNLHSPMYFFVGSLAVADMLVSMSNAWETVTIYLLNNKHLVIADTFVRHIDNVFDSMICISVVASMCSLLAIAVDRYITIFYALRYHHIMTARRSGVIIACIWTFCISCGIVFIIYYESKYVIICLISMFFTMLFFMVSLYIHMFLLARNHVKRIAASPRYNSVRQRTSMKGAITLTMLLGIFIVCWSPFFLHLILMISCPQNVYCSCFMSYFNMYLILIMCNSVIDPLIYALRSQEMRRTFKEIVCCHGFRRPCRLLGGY

Compound	Activity [1]	Activity [2]	Activity [3]	Activity [4]	Activity [5]	Activity [6]	Activity [7]	Activity [8]
O=c1c(O)c(-c2cccc(Br)c2)oc2ccccc12	inactive	inactive	inactive	inactive	inactive	inactive	inactive	inactive
COc1ccc(F)c(-c2oc3ccccc3c(=O)c2O)c1	inactive	inactive	inactive	inactive	inactive	inactive	inactive	inactive
O=c1cc(-c2ccc(Cl)cc2Cl)oc2ccccc12	inactive	inactive	inactive	inactive	inactive	inactive	inactive	inactive
CCOC(=O)COc1c(-c2cc(Br)ccc2F)oc2ccccc2c1=O	inactive	inactive	inactive	inactive	inactive	inactive	inactive	inactive
O=c1c(O)c(-c2c(F)cccc2Cl)oc2ccccc12	inactive	inactive	inactive	inactive	inactive	inactive	inactive	inactive
O=c1c(O)c(-c2ccc(Cl)cc2Cl)oc2ccccc12	inactive	inactive	inactive	inactive	inactive	inactive	inactive	inactive

More lines, now with the values ahead:

Activity [1]	Activity [2]	Activity [3]	Activity [4]	Activity [5]	Activity [6]	Activity [7]	Activity [8]	Compound
inactive	inactive	inactive	inactive	inactive	inactive	inactive	inactive	COc1ccc(-c2cc(=O)c3ccccc3o2)cc1O
inactive	inactive	inactive	inactive	inactive	inactive	inactive	inactive	COc1cc(-c2cc(=O)c3ccccc3o2)ccc1O
inactive	inactive	inactive	inactive	inactive	inactive	inactive	inactive	Clc1ccc(C2C=Cc3ccccc3O2)c(Cl)c1 (racemic)
inactive	inactive	inactive	inactive	inactive	inactive	inactive	inactive	O=c1cc(-c2ccccc2F)oc2ccccc12
inactive	inactive	inactive	inactive	inactive	inactive	inactive	inactive	CN(C)c1ccc(C2C=Cc3ccccc3O2)cc1 (racemic)
inactive	inactive	inactive	inactive	inactive	inactive	inactive	inactive	Fc1ccccc1C1C=Cc2ccccc2O1 (racemic)
